Reference: PubChem BioAssay (NCI)
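Compound exposure: 48 hours, 5 concentrations, 96-well plates. TGI: total growth inhibition.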

Experiments:
Test in all cases: growth of human tumour cells (NCI), 48 h
[1] = test system: SF-295 CNS
[2] = test system: MOLT-4 leukemia
[3] = test system: SNB-19 CNS
[4] = test system: HCC-2998 colon
[5] = test system: A498 renal
[6] = test system: T-47D breast
[7] = test system: HS 578T breast
[8] = test system: OVCAR-5 ovarian
[9] = test system: HCT-116 colon
[10] = test system: SF-539 CNS
[11] = test system: BT-549 breast
[12] = test system: SR leukemia
[13] = test system: IGROV1 ovarian
[14] = test system: SK-MEL-28 melanoma
[15] = test system: PC-3 prostate
[16] = test system: RXF 393 renal
[17] = test system: DU-145 prostate
[18] = test system: CAKI-1 renal
[19] = test system: M14 melanoma
[20] = test system: MCF7 breast
[21] = test system: LOX IMVI melanoma
[22] = test system: UO-31 renal
[23] = test system: EKVX NSCLC
[24] = test system: OVCAR-3 ovarian
[25] = test system: SK-MEL-2 melanoma
[26] = test system: UACC-257 melanoma
[27] = test system: COLO 205 colon
[28] = test system: 786-0 renal
[29] = test system: MDA-N
[30] = test system: UACC-62 melanoma
[31] = test system: K-562 leukemia
[32] = test system: HOP-92 NSCLC
[33] = test system: NCI/ADR-RES ovarian
[34] = test system: SF-268 CNS
[35] = test system: TK-10 renal
[36] = test system: MDA-MB-435
[37] = test system: ACHN renal
[38] = test system: SN12C renal
[39] = test system: A549 NSCLC
[40] = test system: CCRF-CEM leukemia
[41] = test system: OVCAR-8 ovarian
[42] = test system: MDA-MB-231 breast
[43] = test system: SK-MEL-5 melanoma
[44] = test system: HL-60(TB) leukemia
[45] = test system: SW-620 colon
[46] = test system: HOP-62 NSCLC
[47] = test system: OVCAR-4 ovarian
[48] = test system: NCI-H522 lung
[49] = test system: HT29 colon
[50] = test system: NCI-H460 lung
[51] = test system: U251 CNS
[52] = test system: KM12 colon
[53] = test system: HCT-15 colon
[54] = test system: NCI-H23 lung
[55] = test system: SK-OV-3 ovarian
[56] = test system: SNB-75 CNS
[57] = test system: RPMI-8226 leukemia
[58] = test system: NCI-H226 lung
[59] = test system: MALME-3M melanoma

## CC(C)(C)c1cc2c(O)c(c1)C(c1ccccc1)c1cc(C(C)(C)C)cc(c1O)Cc1cc(C(C)(C)C)cc(c1O)C(c1ccccc1)c1cc(C(C)(C)C)cc(c1O)C2 (stereo unspecified)
[1]
  TGI: > 100 µM
[2]
  TGI: > 100 µM
[3]
  TGI: > 100 µM
[4]
  TGI: > 100 µM
[5]
  TGI: > 100 µM
[6]
  TGI: > 100 µM
[7]
  TGI: > 100 µM
[8]
  TGI: > 100 µM
[9]
  TGI: > 100 µM
[10]
  TGI: > 100 µM
[11]
  TGI: > 100 µM
[12]
  TGI: > 100 µM
[13]
  TGI: > 100 µM
[14]
  TGI: > 100 µM
[15]
  TGI: > 100 µM
[16]
  TGI: > 100 µM
[17]
  TGI: > 100 µM
[18]
  TGI: > 100 µM
[19]
  TGI: > 100 µM
[20]
  TGI: > 100 µM
[21]
  TGI: > 100 µM
[22]
  TGI: > 100 µM
[23]
  TGI: > 100 µM
[24]
  TGI: > 100 µM
[25]
  TGI: > 100 µM
[26]
  TGI: > 100 µM
[27]
  TGI: > 100 µM
[28]
  TGI: > 100 µM
[29]
  TGI: > 100 µM
[30]
  TGI: > 100 µM
[31]
  TGI: > 100 µM
[32]
  TGI: > 100 µM
[33]
  TGI: > 100 µM
[34]
  TGI: > 100 µM
[35]
  TGI: > 100 µM
[36]
  TGI: > 100 µM
[37]
  TGI: > 100 µM
[38]
  TGI: > 100 µM
[39]
  TGI: > 100 µM
[40]
  TGI: > 100 µM
[41]
  TGI: > 100 µM
[42]
  TGI: > 100 µM
[43]
  TGI: > 100 µM
[44]
  TGI: > 100 µM
[45]
  TGI: > 100 µM
[46]
  TGI: > 100 µM
[47]
  TGI: > 100 µM
[48]
  TGI: > 100 µM
[49]
  TGI: > 100 µM
[50]
  TGI: > 100 µM
[51]
  TGI: > 100 µM
[52]
  TGI: > 100 µM
[53]
  TGI: > 100 µM
[54]
  TGI: > 100 µM

## Nc1ccccc1C(=O)CCc1c[nH]c2ccccc12
[1]
  TGI: > 100 µM
[2]
  TGI: > 100 µM
[3]
  TGI: > 100 µM
[4]
  TGI: > 100 µM
[5]
  TGI: > 100 µM
[6]
  TGI: > 100 µM
[7]
  TGI: > 100 µM
[8]
  TGI: > 100 µM
[9]
  TGI: > 100 µM
[10]
  TGI: > 100 µM
[11]
  TGI: > 100 µM
[12]
  TGI: > 100 µM
[13]
  TGI: > 100 µM
[14]
  TGI: > 100 µM
[15]
  TGI: > 100 µM
[55]
  TGI: > 100 µM
[17]
  TGI: > 100 µM
[19]
  TGI: > 100 µM
[20]
  TGI: > 100 µM
[21]
  TGI: > 100 µM
[22]
  TGI: > 100 µM
[23]
  TGI: > 100 µM
[56]
  TGI: > 100 µM
[24]
  TGI: > 100 µM
[25]
  TGI: > 100 µM
[26]
  TGI: > 100 µM
[28]
  TGI: > 100 µM
[29]
  TGI: > 100 µM
[57]
  TGI: > 100 µM
[30]
  TGI: > 100 µM
[31]
  TGI: > 100 µM
[32]
  TGI: 55.2 µM
[33]
  TGI: > 100 µM
[58]
  TGI: > 100 µM
[34]
  TGI: > 100 µM
[59]
  TGI: > 100 µM
[35]
  TGI: > 100 µM
[36]
  TGI: > 100 µM
[37]
  TGI: > 100 µM
[38]
  TGI: > 100 µM
[39]
  TGI: > 100 µM
[41]
  TGI: > 100 µM
[42]
  TGI: > 100 µM
[44]
  TGI: > 100 µM
[45]
  TGI: > 100 µM
[46]
  TGI: > 100 µM
[47]
  TGI: > 100 µM
[48]
  TGI: > 100 µM
[49]
  TGI: > 100 µM
[50]
  TGI: > 100 µM
[51]
  TGI: > 100 µM
[52]
  TGI: > 100 µM
[53]
  TGI: > 100 µM

## CNc1ccc(S(=O)Nc2ccc(OC)cc2)cc1 (stereo unspecified)
[1]
  TGI: > 100 µM
[2]
  TGI: > 100 µM
[3]
  TGI: > 100 µM
[4]
  TGI: > 100 µM
[5]
  TGI: > 100 µM
[6]
  TGI: > 100 µM
[7]
  TGI: > 100 µM
[9]
  TGI: > 100 µM
[10]
  TGI: > 100 µM
[11]
  TGI: > 100 µM
[12]
  TGI: > 100 µM
[13]
  TGI: > 100 µM
[14]
  TGI: > 100 µM
[15]
  TGI: > 100 µM
[55]
  TGI: > 100 µM
[17]
  TGI: > 100 µM
[18]
  TGI: > 100 µM
[19]
  TGI: > 100 µM
[20]
  TGI: > 100 µM
[21]
  TGI: > 100 µM
[22]
  TGI: 34.8 µM
[23]
  TGI: > 100 µM
[24]
  TGI: > 100 µM
[26]
  TGI: > 100 µM
[27]
  TGI: 91.4 µM
[28]
  TGI: > 100 µM
[29]
  TGI: > 100 µM
[57]
  TGI: > 100 µM
[31]
  TGI: > 100 µM
[32]
  TGI: > 100 µM
[33]
  TGI: > 100 µM
[58]
  TGI: > 100 µM
[34]
  TGI: > 100 µM
[59]
  TGI: > 100 µM
[35]
  TGI: > 100 µM
[36]
  TGI: 70.1 µM
[37]
  TGI: > 100 µM
[38]
  TGI: > 100 µM
[39]
  TGI: > 100 µM
[40]
  TGI: > 100 µM
[41]
  TGI: > 100 µM
[42]
  TGI: > 100 µM
[43]
  TGI: > 100 µM
[44]
  TGI: > 100 µM
[45]
  TGI: > 100 µM
[46]
  TGI: > 100 µM
[47]
  TGI: > 100 µM
[48]
  TGI: > 100 µM
[49]
  TGI: > 100 µM
[50]
  TGI: > 100 µM
[51]
  TGI: > 100 µM
[52]
  TGI: 22.2 µM
[53]
  TGI: > 100 µM
[54]
  TGI: > 100 µM
